We go through two molecules from patent US20090054971A1, “DRUG ELUTING STENT SYSTEM AND MANUFACTURING PROCESS OF DRUG ELUTING STENT SYSTEM” (TERUMO KABUSHIKI KAISHA, priority 2005, published 2009).

This series can be described thus: Storage stability of the rapamycin derivative (bulk, in glass bottle), percent residual by HPLC. The series is classed as physicochemical. The protocol: A biologically/physiologically active substance and a deoxidant were placed and sealed within a package. After stored at 40° C. for four weeks, the remaining amount of the biologically/physiologically active substance was measured by high speed liquid chromatography (HPLC) to determine its percent residue.
Biologically/physiologically active substance: A rapamycin derivative represented by the following chemical formula (I) (product of Nippon Kayaku Co., Ltd.). An aliquot (0.03 g) of the rapamycin derivative was placed in a glass bottle, and further, the glass bottle was placed within the below-described package.
Deoxidant: “ZH-100” (product of Mitsubishi Gas Chemical Co, Inc.). Two bags, the volume of each bag being sufficient for 100 mL, were placed and sealed within the package.
Package: An aluminum pouch in the form of a bag of a size of 300 mm in length, 300 mm in width and 0.1 mm in thickness, which was formed of a stacked structure of polyethylene terephthalate, low-density polyethylene, an aluminum film, low-density polyethylene and high-density polyethylene as materials.
After stored in the above-described state at 40° C. for four weeks, the biologically/physiologically active substance was taken out of the package and was provided as “Sample A1” for HPLC. […]
By the following equation, the percent residual of the rapamycin derivative in Sample A1 was determined. […]

Each structure is given as a SMILES string.

Regarding `CCOCCOC1CCC(CC(C)C2CC(=O)C(C)C(O)C(C)C(O)C(OC)C(=O)C(C)CC(C)/C=C/C=C/C=C(\C)C(OC)CC3CCC(C)C(O)(O3)C(O)C(=O)N3CCCCC3C(=O)O2)CC1OC` (centres unmarked) [Comparative Example 1], the “Percent residual (%)” value (stored in air at 40° C. for four weeks) stood at 18.2%. On to `CCOCCOC1CCC(CC(C)C2CC(=O)C(C)C(O)C(C)C(O)C(OC)C(=O)C(C)CC(C)/C=C/C=C/C=C(\C)C(OC)CC3CCC(C)C(O)(O3)C(O)C(=O)N3CCCCC3C(=O)O2)CC1OC` (centres unmarked) [Example 1], for which, for the setting “sealed with deoxidant ZH-100 in aluminum pouch, stored at 40° C. for four weeks”, the “Percent residual (%)” value stood at 97.3%.
